One may read the IC50 as the concentration that gives 50% inhibition.

SMILES strings stand for the structures.

Consider 9 molecules from patent publication US7973024B2, “24-sulfoximine vitamin D3 compounds” (Cyctochroma Inc., priority 2002, dated 2011).

For experiment [1], the target named is T1, CYP24 (Homo sapiens, UniProt Q07973).
T1 construct: expressed in transfected cells
T1 sequence (Q07973 36-514): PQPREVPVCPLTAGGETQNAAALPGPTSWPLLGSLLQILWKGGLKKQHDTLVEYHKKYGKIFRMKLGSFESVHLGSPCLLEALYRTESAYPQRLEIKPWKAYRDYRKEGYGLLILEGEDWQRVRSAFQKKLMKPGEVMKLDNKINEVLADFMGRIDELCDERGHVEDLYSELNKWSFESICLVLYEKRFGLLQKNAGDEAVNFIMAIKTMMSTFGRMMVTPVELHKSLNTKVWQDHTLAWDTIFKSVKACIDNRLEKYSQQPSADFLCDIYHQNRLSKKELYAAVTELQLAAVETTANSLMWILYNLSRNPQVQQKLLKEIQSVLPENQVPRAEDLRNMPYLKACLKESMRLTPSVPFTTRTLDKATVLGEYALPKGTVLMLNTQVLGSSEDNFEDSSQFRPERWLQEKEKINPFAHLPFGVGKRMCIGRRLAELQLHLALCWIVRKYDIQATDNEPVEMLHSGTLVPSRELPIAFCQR
The experiment in a line: In vitro test of ability to inhibit specifically CYP24 (standard protocol). It counts as cell-based. The following applies: ketoconazole as control standard.

The next experiment deals with SCC-25 cells. Description: [3H]-thymidine proliferation assay with SCC-25 cells. The following applies: together with calcitriol, three days, [3H]-thymidine 6 h. It counts as cell-based. The procedure:
1. Preparation of Cell Suspension • When SCC-25 cells were 70-80% confluent, aspirated media. Washed the cells with 1×PBS. Trypsinized with trypsin-EDTA from the plate, collected cells from the tissue culture flask, centrifuged (500×g, 5 min) and resuspended in media.
2. Cell Plating. • Counted the cells and adjusted the cell density to 10,000/ml. Added 200 μl per well in a 96 well plate. Incubated plate for 24 h at 37° C. in a humidified atmosphere plus 5% CO2. Aspirated used media and replaced with 150 μl per well with media.
3. Compound Addition. • Added 25 μl of 1α,25(OH)2D3 (final concentration 10^−6M, 10^−7 M, 10^−8 M, M, 10^−10 M, 10^−11 M) into each designated well. Added 25 μl of substrate (final concentration 10^−7 M, 5×10^−8 M, 10^−8 M or 10^−9 M) into each designated well. Incubated plates for 3 days at 37° C. in a humidified atmosphere plus 5% CO2.
4. ^3H-Thymidine Incorporation. • Added ^3H-thymidine at 0.02 μCi per well and incubated at 37° C. in a humidified atmosphere plus 5% CO2 for 6 h.
(§1) 5. Plate Harvesting. • Aspirated all media and washed cells with 1×PBS. Trypsinized cells for 30 min at 37° C. in a humidified atmosphere plus 5% CO2. Harvested cells onto a 96 well filter plate (Millipore) using a Tomtec Cell Harvestor, according to manufacturers instructions.
(§2) 6. Scintillation Counting. • Added 25 μl of scintillation fluid per well. Counted the plate using a scintillation counter.

For experiment [2], the target named is T1, CYP24. Description: CYP24 enzyme assay (stable cell line V79-CYP24 cells). Type of experiment: cell-based. The conditions noted are these: [3H-1β]-1α,25(OH)2D3 20 nM, 2 hours. On the procedure:
1. Preparation of Cell Suspension • On the day of the assay, washed the monolayer of V79-CYP24 cells once with 1×PBS buffer and then trypsinize for 5 min at room temperature (approx. 22° C.). Added 1×PBS. Collected cells into tube, centrifuged cells (500×g, 5 min) and resuspended in DMEM+1% BSA media.
2. Cell Plating • Added 150 μl of cell suspension to appropriately labelled wells of a 48-well plate. Incubated plate for 30 minutes at 37° C. in a humidified atmosphere containing 5% CO2 for adherence of cells to wells.
3. Compound Addition • Added 25 μl of inhibitor (10^−6 to 10^−9 M) and then after 10 min added 25 μl of substrate [^3H-1β]-1α,25(OH)2D3 (20 nM) for 2 hours at 37° C. in a humidified atmosphere containing 5% CO2. Both inhibitor and substrate were prepared in DMEM with 1% BSA media in the absence and presence of 100 μM DPPD.
4. Lipid Extraction and Counting • Added 500 μL of methanol to stop the reaction. Transferred to tube. Added 250 μl of dichloromethane and vortexed. Added 250 μl of dichloromethane and 250 μl of saturated KCL and vortexed. Centrifuged at 4000 rpm for 5 min. Triplicate 100 μl aliquots of aqueous fraction were mixed with 600 μl of scintillation fluid and the radioactivity was measured using a scintillation counter. All values were normalized for background. (iii) Results.

The target of a further experiment is T2, VDR (Homo sapiens, UniProt P11473).
T2 construct: purchased Biomol
T2 sequence (P11473 1-427): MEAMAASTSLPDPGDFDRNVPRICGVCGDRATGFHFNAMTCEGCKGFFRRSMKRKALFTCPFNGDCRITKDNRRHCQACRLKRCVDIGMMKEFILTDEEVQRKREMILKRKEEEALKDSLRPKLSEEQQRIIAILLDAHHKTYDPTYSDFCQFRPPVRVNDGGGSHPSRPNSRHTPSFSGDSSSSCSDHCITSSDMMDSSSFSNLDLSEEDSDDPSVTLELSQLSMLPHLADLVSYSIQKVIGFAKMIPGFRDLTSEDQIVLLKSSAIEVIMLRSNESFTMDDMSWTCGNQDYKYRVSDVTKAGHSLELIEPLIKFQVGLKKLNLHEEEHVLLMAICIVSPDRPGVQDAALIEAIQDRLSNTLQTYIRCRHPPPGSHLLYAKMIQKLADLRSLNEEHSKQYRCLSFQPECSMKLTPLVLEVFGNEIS
The experiment in a line: VDR binding assay. The following applies: B50: displacement of 50 percent [3H]-1,25(OH)2D3 from human recombinant VDR. The procedure:
1. VDR 9.4 pmol/μl (human, recombinant, Biomol).
4. TEK300 • Tris-HCI 50 mM • EDTA 1.5 mM • KCI 300 mM Adjust pH to 7.4 (25° C.)
3. Preparation of 1.25(OH)2D3 and test compounds in ethanol
1 μl stock VDR in 2.5 ml TEDK300/Gelatin solution (500 μl/tube), (keep on ice)
• Label tubes according to the following chart, each in triplicate:
• Mixed all tubes via vortex and incubated at room temperature for 1 hour. Added 10 μL of 3H-1,25(OH)2D3 Working Dilution, mixed by vortex and incubated at room temperature for 1 hour 2. Sample processing • Thirty minutes before addition, put Charcoal/Dextran Solution on ice with continuous mixing. Added […] of Charcoal/Dextran Solution to each tube, mixed well and incubated on ice for 30 minutes. Centrifuged @ 2000 rpm for 10 minutes at 4° C. 3. Counting • Pipetted 100 μL of the upper, aqueous phase to a 24 well scintillation counting plate and added 600 μL scintillation fluid per well, covered and mixed well. Counted the plate using a scintillation counter for 5 min/sample. (iv) Calculations: • The amount of 1,25(OH)2D3 to displace 50 percent [^3H]-1,25(OH)2D3 from VDR was calculated as B50 for 1,25(OH)2D3. The VDR binding of other compounds was calculated as B50 relative to a value of 1 for 1,25(OH)2D3.

Experiment [3] relates to normal human epidermal keratinocytes (NHEK). Description: Human epidermal keratinocyte proliferation assay. Type of experiment: cell-based. The following applies: together with calcitriol, three days, [3H]-thymidine 18 h. The procedure:
1. HEK Cell Media • Supplemented KGM media with additional reagents provided in the bullet kit as per supplier's instructions. • Added calcium chloride to final concentration of 0.3 mM.
2. Calcitriol Dilutions • Stock: Calcitriol (1 mM)
3. Substrate Dilutions • Stock: substrate (0.1 mM)
1. Cell Culture • Thawed one vial of HEK cells containing at least 500 K, and divided into 5 25 cm^2 flasks with 5 ml HEK cell media. 24 h later, removed media and replenished with 5 ml fresh media. Changed media again 48 h later.
2. Preparation of Cell Suspension • On the day of the assay, washed the monolayer of HEK cells once with 1×PBS buffer (provided in reagent pack) and then trypsinized for 5 min at 37° C. Added trypsin neutralizing solution (provided in reagent pack). Collected cells into tube, centrifuged cells (500×g, 5 min) and resuspended in HEK cell media. Counted cells and adjusted density to 150,000 cells/ml. Diluted cells further 1:30 with HEK cell media.
2. Cell Plating • Added 150 μl of cell suspension to appropriately labelled wells of a 96-well plate. Incubated plate for 48 h at 37° C. in a humidified atmosphere containing 5% CO2 for adherence of cells to wells.
3. […]
4. Cell Harvesting and Counting • Added 0.2 μCi/well of [^3H]-thymidine in 20 μl of HEK cell media to each well. Incubated plates for 18 h at 37° C. in a humidified atmosphere containing 5% CO2. Aspirated media and washed with 1×PBS. Trypsinize-cells for 30 min at 37° C. in a humidified atmosphere containing 5% CO2. Harvested cells onto filter plates using Tomtec cell harvester as per manufacturer's instructions. Added 25 μl scintillation fluid per well. Measured radioactivity using a scintillation counter. All values were normalized for background.

Another experiment has as its system MCF-7 cells. The experiment in a line: [3H]-thymidine proliferation assay with MCF-7 cells. The following applies: together with calcitriol, three days, [3H]-thymidine 6 h. It counts as cell-based. On the procedure: 1. Preparation of Cell Suspension • When MCF-7 cells were 70-80% confluent, aspirated growth media. Washed the cells with 1×PBS. Trypsinized with trypsin-EDTA from the plate, collected cells from the tissue culture flask, centrifuged (500×g, 5 min) and resuspended in growth media.
2. Cell Plating. • Counted the cells and adjusted the cell density to 25,000/ml. Added 200 μl per well in a 96 well plate. Incubated plate for 24 h at 37° C. in a humidified atmosphere plus 5% CO2. Aspirated used media and replaced with 150 μl per well with proliferation media.
3. Substrate Addition. • Added 25 μl of 1α,25(OH)2D3 (final concentration 10^−6 M, 10^−7 M, 10^−8 M, 10^−9 M, 10^−10 M, 10^−11 M) into each designated well. Added 25 μl of substrate (final concentration 10^−7 M, 5×10^−8 M, 10^−8 M or 10^−9 M) into each designated well. Incubated plates for 3 days at 37° C. in a humidified atmosphere plus 5% CO2.
4. ^3H-Thymidine incorporation. • Added ^3H-thymidine at 0.02 μCi per well and incubated at 37° C. in a humidified atmosphere plus 5% CO2 for 6 h.
as §1, §2

For `C=C1/C(=C\C=C2/CCC[C@]3(C)[C@@H]([C@H](C)/C=C/S(=N)(=O)c4ccccc4)CC[C@@H]23)C[C@@H](O)C[C@@H]1O` (stereo partly shown) [I(r)], the “selective inhibition of CYP24” value on CYP24 [1] is “selectively inhibit”.
Regarding `CN=S(=O)(CC[C@@H](C)[C@H]1CC[C@H]2/C(=C/C=C3C[C@@H](O)C[C@H](O)C3)CCC[C@]12C)c1ccccc1` (single isomer, unassigned) [I(l), 24-Phenyl N-Methyl Sulfoximine 19-Nor-Vitamin-D3], on CYP24 [1], the “selective inhibition of CYP24” value is listed as “selectively inhibit”. The “inhibition of proliferation of SCC-25 cells” value (from here on “inhibition … of SCC-25 cells”) in the experiment with SCC-25 cells is given as “act to inhibit the proliferation”. On CYP24 [2], this molecule came in with an IC50 of 42 nM.
On the same counts, the results for `C[C@H](CCS(=N)(=O)c1ccccc1)[C@H]1CC[C@H]2/C(=C/C=C3C[C@@H](O)C[C@H](O)C3)CCC[C@]12C` (single isomer, unassigned) [I(j), 24 Phenyl Sulfoximine 19-Nor-Vitamin-D3] are “selectively inhibit”, “act to inhibit the proliferation” and 27 nM.
On to `CN=S(=O)(CC[C@@H](C)[C@H]1CC[C@H]2/C(=C/C=C3C[C@@H](O)C[C@H](O)C3)CCC[C@]12C)c1ccccc1` (single isomer, unassigned) [I(k), 24-Phenyl N-Methyl Sulfoximine 19-Nor-Vitamin-D3], for which, at CYP24 [1], the “selective inhibition of CYP24” value is “selectively inhibit”. The IC50 was over 2000 nM at VDR and 300 nM on CYP24 [2].
On to `C=C1/C(=C\C=C2/CCC[C@]3(C)[C@@H]([C@@H](C)/C=C/S(=N)(=O)c4ccccc4)CC[C@@H]23)C[C@@H](O)C[C@@H]1O` (stereo partly shown) [I(s)], for which the “selective inhibition of CYP24” value on CYP24 [1] is “selectively inhibit”. 580 nM corresponded to half-maximal inhibition on CYP24 [2] (IC50).
For `C=C1/C(=C\C=C2/CCC[C@]3(C)[C@@H]([C@H](C)CCS(=N)(=O)c4ccc(F)cc4)CC[C@@H]23)C[C@@H](O)C[C@@H]1O` (single isomer, unassigned) [I(p)], the “selective inhibition of CYP24” value at CYP24 [1] is listed as “selectively inhibit”. For the same molecule, half-maximal inhibition at CYP24 [2] (IC50) was put at 42 nM.
On the same counts, the results for `C=C1/C(=C\C=C2/CCC[C@]3(C)[C@@H]([C@H](C)CCS(=N)(=O)c4ccc(F)cc4)CC[C@@H]23)C[C@@H](O)C[C@@H]1O` (single isomer, unassigned) [I(q)] are “selectively inhibit” and 78 nM.
Take `C=C1/C(=C\C=C2/CCC[C@]3(C)[C@@H]([C@H](C)CC4(S(=N)(=O)c5ccccc5)CC4)CC[C@@H]23)C[C@@H](O)C[C@@H]1O` (single isomer, unassigned) [I(n)]: in experiment [3], the “inhibition of proliferation of normal human epidermal keratinocytes (NHEK)” value is listed as “act to inhibit the proliferation”. At CYP24 [1], the “selective inhibition of CYP24” value is “selectively inhibit”. Further, the “inhibition … of SCC-25 cells” value in the experiment with SCC-25 cells is reported as “act to inhibit the proliferation”. The molecule further registered a 50% inhibitory concentration (IC50) on CYP24 [2] of 23 nM. For the same molecule, in the experiment on MCF-7 cells, the “inhibition of proliferation of MCF-7 cells” value is “act to inhibit the proliferation”.
Take `C=C1/C(=C\C=C2/CCC[C@]3(C)[C@@H]([C@H](C)CC4(S(=N)(=O)c5ccccc5)CC4)CC[C@@H]23)C[C@@H](O)C[C@@H]1O` (single isomer, unassigned) [I(o)]: the “inhibition of proliferation of normal human epidermal keratinocytes (NHEK)” value in experiment [3] is “act to inhibit the proliferation”. For the same molecule, the “selective inhibition of CYP24” value at CYP24 [1] is “selectively inhibit”. Further, the “inhibition … of SCC-25 cells” value in the experiment on SCC-25 cells is given as “act to inhibit the proliferation”. Also, the IC50 against CYP24 [2] turned out to be 20 nM.
